Ends that are not written are not given here.

Assay [1] relates to antigen-specific autoantibody in situ (marmoset EAE lesions). The assay can be described thus: Immunogold-labeled peptide staining of marmoset EAE CNS tissue sections. The class given is binding, C. jacchus marmoset. The settings on record: conjugates 1:100, silver enhancement. On the procedure:
Immunogold labeling was performed on ultra-thin sections of frozen or fixed tissues. Gold conjugates were prepared of (1) three MOG peptides (amino acids [aa] 1-20, aa 21-40, and aa 41-60 of human MOG (SEQ ID NO:3)) with known encephalitogenic activity in marmosets; (2) one MOG peptide that has been shown not to be encephalitogenic in marmosets (aa 101-120); (3) one human myelin basic protein (MBP) peptide (aa 82-101) that is encephalitogenic in marmosets and immunodominant in humans with the DR2 haplotype; and, as a control, (4) a peptide of mouse serum albumin (MSA; aa 560-574). Peptides having human MOG subsequences were synthesized using standard Fmoc chemistry and purified (>95%) by HPLC (Research Genetics Inc., Huntsville, Ala.): MOG 1-20, MOG 21-40, […], MBP 82-101, and MSA 560-574. The gold conjugates were synthesized by using monosulfo-N-hydroxy succinimide-Nanogold labeling reagent (particle diameter, 1.4 nm), according to the manufacturer's instructions (Nanoprobes, Stonybrook, N.Y.), followed by extensive dialysis to remove unreacted peptide. Immunoreactivity was detected on 1-μm epoxy sections of marmoset spinal cord tissue and active MS lesions. For this, sections were etched with sodium ethoxide, equilibrated in PO4-buffered saline containing 0.05% Triton X-100, and blocked with 10% normal rabbit serum. Sections were incubated with peptide-immunogold conjugates (1:100 in buffer) for 2 hours at room temperature. After washing, detection was performed by using silver enhancement (Nanoprobes). Sections were counterstained with toluidine blue. […]
(§1) As controls, sections were either pretreated with unlabeled encephalitogenic MOG peptides or MBP to block the reaction, reacted with unlabeled nonencephalitogenic MOG peptide (aa 101-120) before application of the gold conjugates, or treated with gold-labeled irrelevant antigens (histone or MSA) or irrelevant IgG (anti-goat). The specificity of the labeling with the gold conjugates of encephalitogenic MOG peptides was also assessed in western blots where the MOG protein was first reacted with immune marmoset serum. […]

Assay [2] relates to MOG- and MBP-specific autoantibodies in MS lesions. The assay can be described thus: Immunogold-labeled peptide staining of human MS CNS tissue. The settings on record: acute human MS lesions. The class given is binding. The protocol: Immunogold labeling was performed on ultra-thin sections of frozen or fixed tissues. Gold conjugates were prepared of (1) three MOG peptides (amino acids [aa] 1-20, aa 21-40, and aa 41-60 of human MOG (SEQ ID NO:3)) with known encephalitogenic activity in marmosets; (2) one MOG peptide that has been shown not to be encephalitogenic in marmosets (aa 101-120); (3) one human myelin basic protein (MBP) peptide (aa 82-101) that is encephalitogenic in marmosets and immunodominant in humans with the DR2 haplotype; and, as a control, (4) a peptide of mouse serum albumin (MSA; aa 560-574). […] Immunoreactivity was detected on 1-μm epoxy sections of marmoset spinal cord tissue and active MS lesions. […]
as §1

With “MBP (aa 82-101): Nanogold conjugate of human myelin basic protein peptide aa 82-101 (PADPGSRPHLIRLFSRDAPG; also: Nanogold conjugate, attachment not given here)”, the “labeling of vesiculated myelin networks by gold conjugate” value (from here on “labeling of vesiculated myelin networks”) in assay [1] is “failed to label”. Moreover, the “staining of vesiculated myelin networks by gold conjugate” value in assay [2] is listed as “to a lesser extent”.

As to “MSA, aa 560-574: Nanogold conjugate of control peptide of mouse serum albumin aa 560-574 (KPKATAEQLKTVMDD; also: Nanogold conjugate, attachment not given here)”, the “labeling of vesiculated myelin networks” value in assay [1] is given as “failed to label”. Also, the “staining of vesiculated myelin networks by gold conjugate” value in assay [2] was “not”.

Take “gold-conjugated MOG peptide (aa 21-40): Nanogold conjugate of human MOG peptide aa 21-40 (ELPCRISPGKNATGMEVGWY; also: Nanogold conjugate, attachment not given here)”: the “labeling of vesiculated myelin networks” value in assay [1] is given as “Positive reactivity”.

These data come from patent US6573236B2, “Inhibiting MOG-antibody binding” (The Regents of the University of California, priority 1998, dated 2003).
